The values below come from patent US9034825B2, “Treatment of myocardial injury with humanin analogs” (Albert Einstein College of Medicine of Yeshiva University, priority 2007, dated 2015).

One data set deals with primary hepatocytes. The data set is described as follows: Glucose production of primary isolated hepatocytes. It counts as cell-based. The conditions noted are these: rat hepatocytes explant cultures. As to the method: (§1) Single-cell suspensions of hepatocytes were obtained from perfusions of Sprague-Dawley rats using the procedure of Berry and Friend (1969) and the perfusion mixture of Leffert et al (1979). Hepatocyte glucose production was estimated after a 24 hr treatment with HN, F6A and saline as described before (Berg et al. 2001). In a separate set of experiment, hepatocytes were lysed, and protein extracted in RIPA lysis buffer at 30, 60 and 360 min post treatment with FIN, F6A and saline. The cell lysates were then subject to western blotting for Phospho-STAT3 (Tyr705), total-STAT3, Phospho-AKT (Ser473), and total-AKT expression (antibodies purchased from Cell Signaling, #9131, #9132, #9271, #9272).

The next data set relates to Sprague-Dawley rats. The data set is described as follows: ICV infusion of humanin or F6A HN with basal and hyperinsulinemic clamp (Example 2). It is filed as in vivo, rat. From the text: Young (3 mo old, n=6 in each group), male Sprague-Dawley rats (Charles River Laboratories, Wilmington, Mass.) were used for this study. Rats were housed in individual cages and were subjected to a standard light (6:00 AM to 6:00 PM)—dark (6:00 PM to 6:00 AM) cycle. All rats were fed ad libitum using regular rat chow that consisted of 64% carbohydrate, 30% protein, and 6% fat with a physiological fuel value of 3.3-kcal/g chow. 2 to 4 weeks before the in vivo study, the rats were anesthetized by inhalation of isoflurane and ICV cannula was placed in the third ventricle for infusions of humanin, humanin analog F6A HN or artificial CSF (aCSF), as previously described (Muzumdar et al., 2003) (FIG. 6). Briefly, a 26-gauge stainless steel guide cannula (Plastics One, Roanoke, Va.) was chronically implanted into the third ventricles using the following coordinates from bregma: anterior-posterior; +0.2 mm dorsal-ventral; −9.0 mm medial-lateral; 0.0 directly on the mid-sagittal suture, followed by a 28-gauge dummy cannula, inserted to prevent clogging of the guide cannula. The implant was secured to the skull with Caulk Grip dental cement, and the skin was closed over the implant using wound clips. The recovery of rats from the surgical stress was monitored with daily weight, food intake, and movement.
Upon recovery of body weight, usually a week, indwelling catheters were placed in the right internal jugular vein and in the left carotid artery (Muzumdar et al., 2003). The venous catheter was extended to the level of the right atrium, and the arterial catheter was advanced to the level of the aortic arch. Recovery was continued until body weight was within 3% of the pre-operative weight (˜4-6 days). In the rats that received peripheral humanin, only the vascular catheters were placed.
Studies were performed in unrestrained rats using the insulin clamp technique, in combination with high performance liquid chromatography-purified [3-^3H]glucose, as described previously (Liu et al., 1998). Food was removed for ˜5 h before the in vivo protocol. All studies lasted 360 min and included a 120-min equilibration period, a 120-min basal period for assessment of the basal glucose turnover, and a 120-min hyperinsulinemic clamp period. All rats received ICV infusions (bolus followed by continuous ICV infusions of humanin, F6A HN or aCSF, depending on the group) over the entire 6 hours of the study. At the beginning of the basal period and 120 min before starting the glucose/insulin infusions, a primed-continuous infusion of high performance liquid chromatography-purified [3-^3H]glucose (NEN Life Science Products, Boston, Mass.; 20 μCi of bolus, 0.2 μCi/min) was initiated and maintained throughout the remaining 4 h of the study. In the final 2 hours of the study, the rats were subjected to hyperinsulinemic clamp. The protocol followed during the insulin clamp study was similar to that previously described (Liu et al., 1998). Briefly, a primed-continuous infusion of regular insulin (3 milliunits/kg-min) was administered, and a variable infusion of a 25% glucose solution was started and periodically adjusted to clamp the plasma glucose concentration at 7-8 mM. To prevent endogenous insulin secretion and in order to control for possible effects of ICV infusions on the endocrine pancreas, somatostatin (1.5 μg/kg-min) was also infused in all the groups.
A bolus of humanin (6 μg) was followed by a continuous infusion over 6 hours (total dose of 18 μg, 0.1 μg/kg/min).
F6A HN has one amino acid substitution (F6A-phenylalanine to alanine on position 6) and has been characterized. A bolus of F6 A HN ([…]) was followed by a continuous infusion over 6 hours (total 18 μg, 0.1 μg/kg/min).
Plasma glucose (sample volume 10 μl) was measured by the glucose oxidase method (Glucose Analyzer II, Beckman Instruments, Palo Alto, Calif.). […]

In data set [1] the test system is pAKT and pSTAT-3 in hepatocytes. The experiment in a line: Western blot of Phospho-STAT3 and Phospho-AKT in primary hepatocytes. It counts as cell-based, rat. As to the method:
as §1
(In general: Immunoblotting shows a protein as a band on a membrane.)

The mark [2] stands for this setting: ICV 18 μg over 6 h, basal period.
The mark [3] stands for this setting: ICV 18 μg over 6 h, hyperinsulinemic clamp.

Turning to `CC[C@H](C)[C@H](NC(=O)[C@H](CCC(=O)O)NC(=O)[C@H](CO)NC(=O)[C@@H](NC(=O)[C@H](CC(C)C)NC(=O)[C@H](CC(C)C)NC(=O)[C@H](CC(C)C)NC(=O)[C@H](CC(C)C)NC(=O)[C@H](CS)NC(=O)[C@H](CO)NC(=O)[C@H](Cc1ccccc1)NC(=O)CNC(=O)[C@H](CCCNC(=N)N)NC(=O)[C@@H]1CCCN1C(=O)[C@H](C)NC(=O)[C@@H](N)CCSC)[C@@H](C)O)C(=O)N[C@@H](CC(=O)O)C(=O)N[C@@H](CC(C)C)C(=O)N1CCC[C@H]1C(=O)N[C@H](C(=O)N[C@@H](CCCCN)C(=O)N[C@@H](CCCNC(=N)N)C(=O)N[C@@H](CCCNC(=N)N)C(=O)N[C@@H](C)C(=O)O)C(C)C` [Humanin, maprgfscll lltseidlpv krra], in the data set with primary hepatocytes, the “glucose production rates with and without HN” value is recorded as “not different”. Also, in the data set with Sprague-Dawley rats (setting [2]), the “Glycogen synthesis, Basal” value turned out to be 4.89 ± 0.61; the “Glycolysis, Basal” value came out at 7.99 ± 0.73 mg/kg/min; the “HGP, Basal” value was found to be 12.87 ± 1.6 mg/kg/min. In the data set with Sprague-Dawley rats (setting [3]), the FFA is recorded as 0.33 ± 0.03 mEq/L; the “Glycogen synthesis, Clamp” value stood at 9.75 ± 0.92; the “Glycolysis, Clamp” value is 15.1 ± 1.0 mg/kg/min; the “HGP, Clamp” value stood at 2.27 ± 0.37 mg/kg/min. Further, the “Rd, Clamp” value in the data set on Sprague-Dawley rats (setting [3]) came out at 24.9 ± 1.6 mg/kg/min. For the same molecule, the “GIR, Clamp” value in the data set on Sprague-Dawley rats (ICV 18 μg over 6 h, hyperinsulinemic clamp 3 mU/kg/min) is recorded as 22.8 ± 1.64 mg/kg/min. Further, in the data set with Sprague-Dawley rats (ICV HN, hyperinsulinemic clamp), the “increase in peripheral glucose uptake (Rd)” value was approximately 150%, the “more reduction in hepatic glucose production (HGP)” value is approximately 50% and the “suppression of FFA compared to controls” value is “significantly higher”. Moreover, the “glucose infusion rate (GIR) relative to aCSF” value in the data set with Sprague-Dawley rats (ICV HN, hyperinsulinemic clamp 3 mU/kg/min) is listed as 165 % of aCSF. The “glucose infusion rate (GIR) during the hyperinsulinemic clamp” value in the data set with Sprague-Dawley rats (ICV HN, Example Summary, in mg/kg/min (unit assumed)) came to 25.2 ±2.6. Further, the “humanin in the rat periphery” value with Sprague-Dawley rats (after ICV infusion) was “No humanin was detected”. Further, the “pAKT or pSTAT-3 in hepatocytes” value in data set [1] is on record as “did not elicit significant changes”.
